# Assay results taken from ChEMBL document CHEMBL1131573, “Potent dipeptide inhibitors of the pp60c-src SH2 domain” (J Med Chem, 1998).
# Square brackets hold non-standard residues; d marks the D form. Peptide text beside a SMILES is read from it. pY = N[C@@H](Cc1ccc(OP(=O)(O)O)cc1)C(=O)O; Ahp = NCCCCCCC(=O)O
# Test: Binding affinity against c-Src tyrosine kinase SH2 domain expressed as ratio of IC50 of test compound over IC50 of AcYEEIE
row,Ratio,Compound
1,115,CC(=O)N[C@@H](Cc1ccc(OP(=O)(O)O)cc1)C(=O)N[C@@H](CCC(=O)O)C(=O)NCCCCCCC(N)=O (Ac-[pY]-Glu-[Ahp]-NH2)
2,26,CCCCCN(CCC(=O)OCC)C(=O)[C@H](CCC(=O)O)NC(=O)[C@H](Cc1ccc(OP(=O)(O)O)cc1)NC(C)=O
3,31.5,CC(=O)N[C@@H](Cc1ccc(OP(=O)(O)O)cc1)C(=O)N[C@@H](CCC(=O)O)C(=O)NCCc1c[nH]c2ccc(O)cc12
4,16.6,CCCCCNC(=O)[C@H](CCC(=O)O)NC(=O)[C@H](Cc1ccc(OP(=O)(O)O)cc1)NC(C)=O
5,36.7,CC(=O)N[C@@H](Cc1ccc(OP(=O)(O)O)cc1)C(=O)N[C@@H](CCC(=O)O)C(=O)NCCCCCCC(=O)O (Ac-[pY]-Glu-[Ahp]-OH)
6,12,CCCCCN(C)C(=O)[C@H](CCC(=O)O)NC(=O)[C@H](Cc1ccc(OP(=O)(O)O)cc1)NC(C)=O
7,33.1,CCCCCN(CCCCC)C(=O)[C@H](CSC)NC(=O)[C@H](Cc1ccc(OP(=O)(O)O)cc1)NC(C)=O
8,16.5,CCCCCN(CCCCC)C(=O)[C@H](CCC(=O)O)NC(=O)[C@H](Cc1ccc(OP(=O)(O)O)cc1)NC(=O)Cc1ccccc1
9,79.7,CCCCCN(CCCCC)C(=O)[C@H](CCC(=O)O)NC(=O)[C@H](Cc1ccc(OP(=O)(O)O)cc1)NC(=O)OCc1ccccc1
10,7.2,CCCCCN(CCCCC)C(=O)[C@H](CCC(=O)O)NC(=O)[C@H](Cc1ccc(OP(=O)(O)O)cc1)NC(=O)c1ccc(OC)cc1
11,18.9,CCCCCN(CCCCC)C(=O)[C@H](CCC(=O)O)NC(=O)[C@H](Cc1ccc(OP(=O)(O)O)cc1)NC(=O)CSCc1ccccc1
12,9.3,CC(=O)N[C@@H](Cc1ccc(OP(=O)(O)O)cc1)C(=O)N[C@@H](CCC(=O)O)C(=O)N(C)CCCc1c(C(N)=O)[nH]c2ccccc12
13,16.7,CCCCCN(CCO)C(=O)[C@H](CCC(=O)O)NC(=O)[C@H](Cc1ccc(OP(=O)(O)O)cc1)NC(C)=O
14,13.5,CCCCCN(CCCCC)C(=O)[C@H](CCC(=O)O)NC(=O)[C@H](Cc1ccc(OP(=O)(O)O)cc1)NC(=O)Nc1ccc(OC)cc1
15,27.2,CCCCCN(CCCCC)C(=O)[C@H](CCC(=O)O)NC(=O)[C@H](Cc1ccc(OP(=O)(O)O)cc1)NC(=O)CCCc1ccccc1
16,48,CCCCCN(CCC(=O)O)C(=O)[C@H](CCC(=O)O)NC(=O)[C@H](Cc1ccc(OP(=O)(O)O)cc1)NC(C)=O
17,6.4,CC(=O)N[C@@H](Cc1ccc(OP(=O)(O)O)cc1)C(=O)N[C@@H](CCC(=O)O)C(=O)N(C)CCCCCCO
18,15.3,CCCCCN(CCCCC)C(=O)[C@H](CCC(=O)O)NC(=O)[C@H](Cc1ccc(OP(=O)(O)O)cc1)NC(=O)c1ccccc1
19,17.7,CCCCCN(CCCCC)C(=O)[C@H](CCC(=O)O)NC(=O)[C@H](Cc1ccc(OP(=O)(O)O)cc1)NC(=O)CSc1ccccc1
20,29.7,COc1ccc2[nH]cc(CCNC(=O)[C@H](CCC(=O)O)NC(=O)[C@H](Cc3ccc(OP(=O)(O)O)cc3)NC(C)=O)c2c1
21,26.7,CCCCCN(CCCCC)C(=O)[C@H](CCC(=O)O)NC(=O)[C@H](Cc1ccc(OP(=O)(O)O)cc1)NC(=O)CCc1ccc(O)cc1

row,Ratio,Compound
1,606,CC(=O)N[C@@H](Cc1ccc(OP(=O)(O)O)cc1)C(=O)N[C@@H](CCC(=O)O)C(=O)O (Ac-[pY]-Glu-OH)
2,92.1,CCCCCN(CCCCC)C(=O)[C@H](CCC(=O)O)NC(=O)[C@H](Cc1ccc(OP(=O)(O)O)cc1)NC(=O)Cc1ccc(CN)cc1
3,75.3,CCCCCN(CCCCC)C(=O)[C@H](CCS(C)(=O)=O)NC(=O)[C@H](Cc1ccc(OP(=O)(O)O)cc1)NC(C)=O
4,57.2,CCCCCN(CCCCC)C(=O)[C@H](CCC(=O)O)NC(=O)[C@H](Cc1ccc(OP(=O)(O)O)cc1)NC(=O)C(F)(F)F
5,2.2,CC(=O)N[C@@H](Cc1ccc(OP(=O)(O)O)cc1)C(=O)N[C@@H](CCC(=O)O)C(=O)N(C)CCCCCCCCO
6,25.4,CCCCCN(CCCCC)C(=O)[C@H](CCC(=O)O)NC(=O)[C@H](Cc1ccc(OP(=O)(O)O)cc1)NC(=O)c1ccc(C(F)(F)F)cc1
7,3.6,CC(=O)N[C@@H](Cc1ccc(OP(=O)(O)O)cc1)C(=O)N[C@@H](CCC(=O)O)C(=O)N(C)CCCCCCCO
8,200,CC(=O)N[C@@H](Cc1ccc(OP(=O)(O)O)cc1)C(=O)N[C@@H](CCC(=O)O)C(N)=O (Ac-[pY]-Glu-NH2)
9,184,CCCCCN(CCCCC)C(=O)[C@H](CCC(=O)O)NC(=O)[C@H](Cc1ccc(OP(=O)(O)O)cc1)NC(=O)Nc1ccc([N+](=O)[O-])cc1
10,32.7,CCCCCN(CCCCC)C(=O)[C@H](CCC(=O)O)NC(=O)[C@H](Cc1ccc(OP(=O)(O)O)cc1)NC(=O)COCc1ccccc1
11,155,CCCCCN(CCCCC)C(=O)[C@H](CSCc1ccccc1)NC(=O)[C@H](Cc1ccc(OP(=O)(O)O)cc1)NC(C)=O
12,39,CCCCCN(CCCCC)C(=O)[C@H](CCC(=O)O)NC(=O)[C@H](Cc1ccc(OP(=O)(O)O)cc1)NC(=O)c1ccc(Cl)cc1
13,17.7,CCCCCN(CCCCC)C(=O)[C@H](CCC(=O)O)NC(=O)[C@H](Cc1ccc(OP(=O)(O)O)cc1)NC(=O)CCc1cccnc1
14,327,CCCCCCCN(CCCCCCC)C(=O)[C@H](CCC(=O)O)NC(=O)[C@H](Cc1ccc(OP(=O)(O)O)cc1)NC(C)=O
15,31.8,CC(=O)N[C@@H](Cc1ccc(OP(=O)(O)O)cc1)C(=O)N[C@@H](CCC(=O)O)C(=O)N(C)CCc1c[nH]c2ccccc12
16,24,CCCCCCN(CCCCCC)C(=O)[C@H](CCC(=O)O)NC(=O)[C@H](Cc1ccc(OP(=O)(O)O)cc1)NC(C)=O
17,16.5,CCCCCN(CCCCC)C(=O)[C@H](CCSC)NC(=O)[C@H](Cc1ccc(OP(=O)(O)O)cc1)NC(C)=O
18,10.8,CCCCCN(CCCCC)C(=O)[C@H](CCC(=O)O)NC(=O)[C@H](Cc1ccc(OP(=O)(O)O)cc1)NC(=O)CCc1ccccc1
19,11.6,CC(=O)N[C@@H](Cc1ccc(OP(=O)(O)O)cc1)C(=O)N[C@@H](CCC(=O)O)C(=O)N(C)CCCc1c[nH]c2ccccc12
20,26.9,CCCCCN(CCCCC)C(=O)[C@H](CCC(=O)O)NC(=O)[C@H](Cc1ccc(OP(=O)(O)O)cc1)NC(=O)Nc1ccc(N)cc1
21,5.7,CCCCCN(CCCCC)C(=O)[C@H](CCC(=O)O)NC(=O)[C@H](Cc1ccc(OP(=O)(O)O)cc1)NC(=O)c1ccc([N+](=O)[O-])cc1
